In the supplement of paper PMC10307832:

Assays:
Experiment in all cases: relative viability (nuclei count vs DMSO), 5 days (fraction); higher = more cells survive
Masitinib + Decitabine = compound: Cc1ccc(NC(=O)c2ccc(CN3CCN(C)CC3)cc2)cc1Nc1nc(-c2cccnc2)cs1 [Masitinib] + Nc1ncn([C@H]2C[C@H](O)[C@@H](CO)O2)c(=O)n1 [Decitabine] (partner 2 µM)
Summary of the method: (§1)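 Relative viability equals treated-well nuclei counts divided by vehicle-well nuclei counts. Counts came from 4× images of lung cancer cell lines grown in 1536-well plates for 5 days after pin-tool dosing on the day after seeding. Dosing used one drug alone or a fixed anchor-drug dose plus five library-drug doses (not always all listed) in √10 steps, and values are medians of duplicate plates.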

Masitinib + Linsitinib = compound: Cc1ccc(NC(=O)c2ccc(CN3CCN(C)CC3)cc2)cc1Nc1nc(-c2cccnc2)cs1 [Masitinib] + C[C@]1(O)C[C@@H](c2nc(-c3ccc4ccc(-c5ccccc5)nc4c3)c3c(N)nccn32)C1 [Linsitinib] (partner 1 µM)
Summary of the method: as §1

Masitinib + Trametinib = compound: Cc1ccc(NC(=O)c2ccc(CN3CCN(C)CC3)cc2)cc1Nc1nc(-c2cccnc2)cs1 [Masitinib] + CC(=O)Nc1cccc(-n2c(=O)n(C3CC3)c(=O)c3c(Nc4ccc(I)cc4F)n(C)c(=O)c(C)c32)c1 [Trametinib] (partner 0.02 µM)
Summary of the method: as §1

[1] = compound: CC1=CC(=CC=C1)NC2=NC(=CS2)C3=CC=NC=C3 + CCNC(=O)c1noc(-c2cc(C(C)C)c(O)cc2O)c1-c1ccc(CN2CCOCC2)cc1 [Luminespib] (partner 0.01 µM)
Summary of the method: as §1

Cell Line | relative viability (Masitinib + Decitabine; first compound 0.03162 µM) | relative viability (Masitinib + Decitabine; first compound 0.1 µM) | relative viability (Masitinib + Decitabine; first compound 0.3162 µM) | relative viability (Masitinib + Decitabine; first compound 1 µM) | relative viability (Masitinib + Linsitinib; first compound 0.01 µM) | relative viability (Masitinib + Linsitinib; first compound 0.03162 µM) | relative viability (Masitinib + Linsitinib; first compound 0.1 µM) | relative viability (Masitinib + Linsitinib; first compound 0.3162 µM) | relative viability (Masitinib + Linsitinib; first compound 1 µM) | relative viability (Masitinib + Trametinib; first compound 0.03162 µM) | relative viability (Masitinib + Trametinib; first compound 0.1 µM) | relative viability (Masitinib + Trametinib; first compound 0.3162 µM) | relative viability (Masitinib + Trametinib; first compound 1 µM) | relative viability (Masitinib + Decitabine; first compound 0.01 µM) | relative viability (Masitinib + Trametinib; first compound 0.01 µM) | relative viability ([1]; first compound 0.08 µM) | relative viability ([1]; first compound 0.253 µM) | relative viability ([1]; first compound 0.8 µM) | relative viability ([1]; first compound 2.53 µM) | relative viability ([1]; first compound 8 µM)
HCC-366 | 0.339 | 0.369 | 0.389 | 0.33 | 0.728 | 0.521 | 0.841 | 0.753 | 0.55 | 0.275 | 0.407 | 0.333 | 0.34 | – | – | – | – | – | – | –
HCC-827 | 0.342 | 0.295 | 0.27 | 0.312 | 1.03 | 0.969 | 0.976 | 0.935 | 0.935 | 0.532 | 0.539 | 0.603 | 0.547 | 0.296 | 0.508 | 0.618 | 0.453 | 0.649 | 0.89 | 0.726
HOP-62 | 0.222 | 0.23 | 0.201 | 0.212 | 0.916 | 0.978 | 0.973 | 0.917 | 0.833 | 0.361 | 0.349 | 0.365 | 0.375 | 0.22 | 0.394 | 0.952 | 0.8 | 0.867 | 0.914 | 0.879
IA-LM | – | – | – | – | 0.365 | 0.541 | 0.557 | 0.504 | 0.451 | – | – | – | – | – | – | – | – | – | – | –
LC-2-ad | 0.795 | 0.85 | 0.795 | 0.894 | 0.876 | 0.83 | 0.791 | 0.855 | 0.833 | 0.917 | 0.911 | 0.941 | 0.93 | 0.837 | 0.92 | 0.858 | – | 1.09 | 0.768 | 0.965
LCLC-97TM1 | 0.233 | 0.281 | 0.167 | 0.225 | 0.157 | 0.151 | 0.197 | 0.144 | 0.181 | 0.19 | 0.19 | 0.231 | 0.186 | 0.273 | 0.184 | 0.689 | 0.794 | 0.839 | 0.816 | 0.825
LCLC-103H | 0.723 | 0.735 | 0.748 | 0.711 | 0.796 | 1.02 | 0.859 | 1.01 | 1.08 | 0.624 | 0.693 | 0.713 | 0.669 | – | – | 1 | 0.824 | 0.878 | 0.943 | 0.608
LK-2 | 0.261 | 0.366 | 0.249 | 0.281 | 0.511 | 0.573 | 0.618 | 0.649 | 0.812 | 0.783 | 0.828 | 0.728 | 0.748 | 0.342 | 0.743 | – | 0.161 | 0.207 | – | 0.183
LOU-NH91 | 0.754 | 0.792 | 0.785 | 0.783 | 0.909 | 0.893 | 0.972 | 0.928 | 0.911 | 0.765 | 0.792 | 0.732 | 0.772 | 0.797 | 0.756 | 0.319 | 0.351 | 0.33 | 0.297 | 0.314
LU99A | 0.916 | 0.901 | 0.997 | 0.986 | 0.511 | 0.53 | 0.512 | 0.719 | 0.505 | 0.597 | 0.624 | 0.559 | 0.503 | 0.921 | 0.619 | 0.256 | 0.213 | 0.242 | 0.302 | 0.254
LXF-289 | 0.394 | 0.435 | 0.369 | 0.41 | 0.804 | 0.999 | 0.901 | 0.981 | 0.944 | 0.707 | 0.674 | 0.747 | 0.699 | 0.332 | 0.638 | 0.655 | 0.649 | 0.573 | 0.646 | 0.69
NCI-H522 | 0.897 | 0.8 | 0.696 | 0.646 | – | – | – | – | – | 0.784 | 0.787 | 0.73 | 0.721 | 0.707 | 0.742 | 1.25 | 1.07 | 1.34 | – | 1.28
NCI-H1299 | – | – | – | – | 0.778 | 1.02 | 1.06 | 1.09 | 0.879 | – | – | – | – | – | – | – | – | – | – | –
NCI-H1563 | – | – | – | – | 1.17 | 1.09 | 1.19 | 1.26 | 1.17 | – | – | – | – | – | – | 0.488 | 0.546 | 0.546 | 0.506 | 0.541
NCI-H1623 | – | – | – | – | – | – | – | – | – | – | – | – | – | – | – | 0.496 | 0.453 | 0.369 | 0.371 | 0.391
NCI-H1648 | 0.451 | 0.568 | – | 0.453 | – | – | – | – | – | 0.436 | 0.414 | – | 0.442 | 0.614 | 0.523 | – | – | – | – | –
NCI-H1650 | 0.391 | 0.411 | 0.493 | 0.345 | – | – | – | – | – | 0.54 | 0.479 | 0.493 | 0.527 | 0.438 | 0.48 | 0.214 | 0.181 | 0.222 | 0.194 | 0.186
NCI-H1703 | – | – | – | – | 0.667 | 1.02 | 0.479 | 0.23 | 0.187 | – | – | – | – | – | – | – | – | – | – | –
NCI-H2170 | 0.473 | 0.509 | 0.488 | 0.449 | – | – | – | – | – | 0.76 | 1.01 | 0.984 | 0.98 | 0.467 | 1.08 | 0.624 | 0.701 | 0.775 | 0.527 | 0.48
NCI-H2228 | – | – | – | – | 0.703 | 0.58 | 0.609 | 0.807 | 0.52 | 0.381 | 0.405 | 0.482 | 0.529 | – | 0.385 | 0.107 | 0.159 | 0.194 | 0.164 | 0.17
NCI-H2342 | 0.648 | 0.683 | 0.79 | 0.833 | – | – | – | – | – | 0.7 | 0.844 | 0.797 | 0.875 | 0.724 | 0.89 | 0.746 | 0.717 | 0.771 | 0.67 | 0.676
SW 900 | 0.438 | 0.452 | 0.519 | 0.442 | – | – | – | – | – | 0.736 | 0.787 | 0.821 | 0.843 | 0.349 | 0.719 | 0.186 | 0.178 | 0.172 | 0.188 | 0.178
